{"source": "patent US9096591B2", "about": "“Tetracyclic compounds” (Medivation Technologies, Inc., priority 2007, dated 2015)", "key": {"[1]": {"target": "T1, human recombinant histamine H1 receptor (Homo sapiens, UniProt P35367)", "T1 construct": "expressed in transfected cells; host or cells: CHO cells", "T1 sequence (P35367 whole entry)": "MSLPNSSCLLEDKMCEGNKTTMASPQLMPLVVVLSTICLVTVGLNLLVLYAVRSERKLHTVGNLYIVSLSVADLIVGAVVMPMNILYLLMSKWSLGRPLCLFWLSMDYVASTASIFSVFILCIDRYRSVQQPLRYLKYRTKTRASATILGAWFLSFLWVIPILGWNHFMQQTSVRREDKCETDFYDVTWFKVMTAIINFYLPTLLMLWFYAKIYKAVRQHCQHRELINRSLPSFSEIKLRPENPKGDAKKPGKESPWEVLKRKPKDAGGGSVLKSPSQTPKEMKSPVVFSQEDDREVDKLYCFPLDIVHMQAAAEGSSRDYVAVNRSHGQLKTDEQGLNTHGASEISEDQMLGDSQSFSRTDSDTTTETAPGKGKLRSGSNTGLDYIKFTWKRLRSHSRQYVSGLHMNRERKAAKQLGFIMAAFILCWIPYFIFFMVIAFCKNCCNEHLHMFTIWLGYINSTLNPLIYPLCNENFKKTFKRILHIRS", "test": "Histamine H1 radioligand binding ([3H]Pyrilamine)", "details": "percent inhibition of specific binding; screened at 1 μM; read-out: Inhibition of ligand binding, Hist. H1", "summary_of_the_method": "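Receptor expressed in CHO cells, assayed in 50 mM Tris-HCl pH 7.4 with 2 mM MgCl2, 100 mM NaCl, 250 mM sucrose. Compounds tested at 1 μM in 1% DMSO; non-specific binding set with 1 μM pyrilamine. Filter-bound radioactivity counted; values are percent inhibition of specific binding.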"}, "[2]": {"target": "T2, human recombinant histamine H2 receptor (Homo sapiens, UniProt P25021)", "T2 construct": "expressed in transfected cells; host or cells: CHO-K1 cells", "T2 sequence (P25021 whole entry)": "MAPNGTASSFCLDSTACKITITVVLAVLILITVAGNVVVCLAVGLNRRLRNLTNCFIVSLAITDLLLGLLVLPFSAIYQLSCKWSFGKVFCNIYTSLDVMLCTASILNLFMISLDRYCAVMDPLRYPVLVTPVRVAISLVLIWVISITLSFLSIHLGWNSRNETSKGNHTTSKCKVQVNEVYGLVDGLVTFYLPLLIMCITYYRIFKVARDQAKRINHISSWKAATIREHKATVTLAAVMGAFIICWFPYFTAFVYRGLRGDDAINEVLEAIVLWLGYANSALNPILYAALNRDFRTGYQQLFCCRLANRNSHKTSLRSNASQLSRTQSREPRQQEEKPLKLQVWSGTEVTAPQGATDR", "test": "Histamine H2 radioligand binding ([125I]Aminopotentidine)", "details": "percent inhibition of specific binding; screened at 1 μM; read-out: Inhibition of ligand binding, Hist. H2", "summary_of_the_method": "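Test compounds were assessed for their ability to displace radioligand from the human recombinant histamine H2 receptor. Non-specific binding was determined in the presence of 3 μM Tiotidine, and results were expressed as percent inhibition of specific binding, with 1% DMSO serving as the vehicle.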"}, "[3]": {"target": "T3, human recombinant adrenergic α1D receptor (Homo sapiens, UniProt P25100)", "T3 construct": "expressed in transfected cells; host or cells: HEK-293 cells", "T3 sequence (P25100 1-572)": "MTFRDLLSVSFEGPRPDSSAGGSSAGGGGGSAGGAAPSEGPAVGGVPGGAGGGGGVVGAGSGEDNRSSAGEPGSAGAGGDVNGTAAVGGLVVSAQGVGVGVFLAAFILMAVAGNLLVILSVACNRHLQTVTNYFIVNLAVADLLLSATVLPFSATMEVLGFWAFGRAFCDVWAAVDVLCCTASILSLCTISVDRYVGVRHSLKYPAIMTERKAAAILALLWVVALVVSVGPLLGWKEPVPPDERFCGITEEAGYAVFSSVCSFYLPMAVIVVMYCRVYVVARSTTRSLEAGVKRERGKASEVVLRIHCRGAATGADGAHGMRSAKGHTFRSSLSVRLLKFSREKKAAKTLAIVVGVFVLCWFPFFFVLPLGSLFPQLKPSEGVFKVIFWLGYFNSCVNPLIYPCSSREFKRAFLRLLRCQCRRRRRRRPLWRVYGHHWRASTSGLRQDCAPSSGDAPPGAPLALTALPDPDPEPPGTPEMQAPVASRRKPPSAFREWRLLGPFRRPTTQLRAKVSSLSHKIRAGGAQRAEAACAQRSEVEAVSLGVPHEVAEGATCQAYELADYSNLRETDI", "test": "Adrenergic α1D radioligand binding ([3H]Prozosin)", "design": "Inhibition of ligand binding, Adren. alpha1D: concentration or dose not given beside the values", "details": "percent inhibition of specific binding", "procedure": "Compounds of invention were incubated with 0.6 nM [^3H]Prozosin for 60 minutes at 25° C. Non-specific binding was estimated in the presence of 10 μM phentolamine. Receptor proteins were filtered and washed, the filters were then counted to determine [^3H]Prozosin specifically bound. […] Biochemical assay results are presented as the percent inhibition of specific binding in Table 6."}, "[4]": {"target": "T4, human recombinant adrenergic α2B receptor (Homo sapiens, UniProt P18089)", "T4 construct": "expressed in transfected cells; host or cells: CHO-K1 cells", "T4 sequence (P18089 1-450)": "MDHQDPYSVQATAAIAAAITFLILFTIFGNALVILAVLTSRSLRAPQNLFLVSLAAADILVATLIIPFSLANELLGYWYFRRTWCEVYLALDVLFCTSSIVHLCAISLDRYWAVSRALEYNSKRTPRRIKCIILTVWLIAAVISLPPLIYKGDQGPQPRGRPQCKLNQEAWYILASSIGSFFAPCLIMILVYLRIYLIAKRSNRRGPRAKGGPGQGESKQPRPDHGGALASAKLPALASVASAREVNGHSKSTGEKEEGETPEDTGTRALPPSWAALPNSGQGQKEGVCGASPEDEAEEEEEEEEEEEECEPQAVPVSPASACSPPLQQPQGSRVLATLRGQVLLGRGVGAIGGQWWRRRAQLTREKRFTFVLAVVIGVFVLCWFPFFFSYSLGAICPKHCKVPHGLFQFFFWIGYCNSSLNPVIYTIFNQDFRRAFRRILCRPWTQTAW", "test": "Adrenergic α2B radioligand binding ([3H]Rauwolscine)", "design": "Inhibition of ligand binding, Adren. alpha2B: concentration or dose not given beside the values", "details": "percent inhibition of specific binding", "summary_of_the_method": "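Membranes from CHO-K1 cells expressing the receptor, in 50 mM Tris-HCl pH 7.4 with 12.5 mM MgCl2, 1 mM EDTA, 0.2% BSA, incubated with compounds and 2.5 nM [3H]Rauwolscine for 60 minutes at 25 °C.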"}, "[5]": {"target": "T5, human recombinant dopamine D2L receptor (Homo sapiens, UniProt P14416)", "T5 construct": "expressed in transfected cells; host or cells: CHO cells", "T5 sequence (P14416 whole entry)": "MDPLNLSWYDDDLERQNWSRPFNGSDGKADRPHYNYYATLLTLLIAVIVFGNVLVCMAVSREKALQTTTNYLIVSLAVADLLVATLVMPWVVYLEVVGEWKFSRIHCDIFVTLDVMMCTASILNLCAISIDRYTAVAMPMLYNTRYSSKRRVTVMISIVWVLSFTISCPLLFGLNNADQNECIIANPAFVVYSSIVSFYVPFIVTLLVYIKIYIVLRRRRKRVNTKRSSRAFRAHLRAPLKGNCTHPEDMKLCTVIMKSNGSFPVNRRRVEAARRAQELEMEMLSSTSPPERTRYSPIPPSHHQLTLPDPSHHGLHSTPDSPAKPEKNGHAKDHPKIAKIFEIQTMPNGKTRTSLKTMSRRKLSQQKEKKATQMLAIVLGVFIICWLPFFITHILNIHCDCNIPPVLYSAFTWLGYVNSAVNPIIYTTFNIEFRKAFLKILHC", "test": "Dopamine D2L radioligand binding ([3H]Spiperone)", "details": "percent inhibition of specific binding", "procedure": "Non-specific binding was estimated in the presence of 10 μM Haloperidol. Receptor proteins were filtered and washed, the filters were then counted to determine [^3H]Spiperone specifically bound. […] Biochemical assay results are presented as the percent inhibition of specific binding in Table 6."}, "[6]": {"target": "T6, human recombinant serotonin (5-Hydroxytryptamine) 5-HT2A receptor (Homo sapiens, UniProt P28223)", "T6 construct": "expressed in transfected cells; host or cells: CHO-K1 cells", "T6 sequence (P28223 whole entry)": "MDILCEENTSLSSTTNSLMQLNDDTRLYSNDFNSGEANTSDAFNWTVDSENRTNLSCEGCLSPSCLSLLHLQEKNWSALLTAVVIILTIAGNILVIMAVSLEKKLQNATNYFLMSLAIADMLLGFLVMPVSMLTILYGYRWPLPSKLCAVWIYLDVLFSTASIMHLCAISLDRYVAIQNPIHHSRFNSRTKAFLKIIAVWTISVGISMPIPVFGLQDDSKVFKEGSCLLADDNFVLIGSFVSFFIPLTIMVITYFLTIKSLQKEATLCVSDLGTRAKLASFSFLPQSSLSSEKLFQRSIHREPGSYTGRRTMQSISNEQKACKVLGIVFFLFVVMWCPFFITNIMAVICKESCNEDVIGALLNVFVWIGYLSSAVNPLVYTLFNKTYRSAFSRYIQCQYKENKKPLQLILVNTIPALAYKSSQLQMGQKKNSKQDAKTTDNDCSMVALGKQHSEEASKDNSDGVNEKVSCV", "test": "Serotonin 5-HT2A radioligand binding ([3H]Ketanserin)", "details": "percent inhibition of specific binding", "procedure": "Compounds of the invention were incubated with 0.5 nM [^3H]Ketanserin for 60 minutes at 25° C. Non-specific binding was estimated in the presence of 1 μM Mianserin. Receptor proteins were filtered and washed, the filters were then counted to determine [^3H]Ketanserin specifically bound. […] Biochemical assay results are presented as the percent inhibition of specific binding in Table 6."}}, "data": [{"smiles": "Cc1ccc2c(c1)c1c(n2CC(=O)N2CCN(C)CC2)CCN(C)C1", "note": "[Compound 459, 2-(1,2,3,4-tetrahydro-2,8-dimethylpyrido[4,3-b]indol-5-yl)-1-(4-methylpiperazin-1-yl)ethanone]", "values": [{"measurement": "inhibition at 1 µM", "setting": "[1]", "value": 0, "unit": "%"}, {"measurement": "inhibition at 1 µM", "setting": "[2]", "value": -4, "unit": "%"}, {"measurement": "Inhibition of ligand binding, Adren. alpha1D", "setting": "[3]", "value": 0, "unit": "%"}, {"measurement": "Inhibition of ligand binding, Adren. alpha2B", "setting": "[4]", "value": "−20", "unit": "%"}, {"measurement": "Inhibition of ligand binding, Dop. D2L", "setting": "[5]", "value": "−7", "unit": "%"}, {"measurement": "Inhibition of ligand binding, Ser. 5-HT2A", "setting": "[6]", "value": 1, "unit": "%"}]}, {"smiles": "CCCc1ccc(CCn2c3c(c4cc(Cl)ccc42)CN(C)CC3)cn1", "note": "[Compound 476, 8-chloro-2,3,4,5-tetrahydro-2-methyl-5-(2-(6-propylpyridin-3-yl)ethyl)-1H-pyrido[4,3-b]indole]", "values": [{"measurement": "inhibition at 1 µM", "setting": "[1]", "value": 98, "unit": "%"}, {"measurement": "inhibition at 1 µM", "setting": "[2]", "value": 96, "unit": "%"}, {"measurement": "Inhibition of ligand binding, Adren. alpha1D", "setting": "[3]", "value": 95, "unit": "%"}, {"measurement": "Inhibition of ligand binding, Adren. alpha2B", "setting": "[4]", "value": 97, "unit": "%"}, {"measurement": "Inhibition of ligand binding, Dop. D2L", "setting": "[5]", "value": 30, "unit": "%"}, {"measurement": "Inhibition of ligand binding, Ser. 5-HT2A", "setting": "[6]", "value": 100, "unit": "%"}]}]}
